Reference: article PMC3745430, “Novel Multiplexed Assay for Identifying SH2 Domain Antagonists of STAT Family Proteins” (PLoS ONE, 2013)
Like-named read-outs stand apart in the source and are kept apart here. Square brackets hold non-standard residues; d marks the D form. Primed or numbered codes have the meaning given here. Ends that are not written are not given here. pY = N[C@@H](Cc1ccc(OP(=O)(O)O)cc1)C(=O)O; FITC′ = 5-carboxyfluorescein label; DIG = digoxygenin label; C2 = two carbon spacer; C6 = C6 spacer

Experiments:
STAT3(136–705) [1] = target: T1, STAT3(136–705) (Homo sapiens, UniProt P40763); test: Multiplexed Alpha assay, STAT3-SH2 binding (AlphaLISA)
T1 construct: amino acids 136 to 705 of human STAT3 and 136 to 703 of human STAT5b; 6×His-tag (N); made in house; host or cells: E. coli BL-21 Star (DE3) pLysS co-transformed with pBirAcm
Experimental: (§1) Both AlphaLISA and AlphaScreen are bead-based nonradioactive binding assay systems for detecting biomolecular interactions in a microplate format. The binding of the biological partners brings the donor and acceptor beads into close proximity, and AlphaLISA produces a specific signal around 615 nm and AlphaScreen emits a broad signal between 520 and 620 nm. The assays were performed in a final reaction volume of 25 µL of the assay buffer, which contained 10 mM HEPES-NaOH (pH 7.4), 50 mM NaCl, 1 mM EDTA (pH 8.0), 0.1% (w/v) NP-40, and 10 ng/µL (w/v) BSA in a 96-well microplate at 25°C. The labeled phosphotyrosyl (pTyr, pY) peptide probes were DIG-GpYLPQTV and FITC-GpYLVLDKW for STAT3 and STAT5b, respectively. In the single assay for STAT3 binding, 100 nM STAT3(136–705) protein was incubated with a test compound dissolved in DMSO for 30 min, and 1.0 nM DIG-GpYLPQTV was added and the mixture was incubated for 90 min. Streptavidin-coated donor beads (0.25 µg/well) and anti-DIG AlphaLISA acceptor beads (0.25 µg/well) were added and incubated for 90 min before the signals were measured with EnVison Xcite (PerkinElmer Life Sciences). In the single assay for STAT5b binding, 20 nM STAT5b(136–703) was incubated with a test compound for 30 min, and 1.0 nM FITC-GpYLVLDKW was added and incubated for 90 min. Streptavidin-coated donor beads (0.25 µg/well) and anti-FITC AlphaScreen acceptor beads (0.25 µg/well) were added and incubated for 90 min before the signals were measured with EnVison Xcite. In the multiplexed assay, 100 nM STAT3(136–705) and 20 nM STAT5b(136–703) were incubated with a test compound for 30 min, and 1.0 nM DIG-GpYLPQTV and 1.0 nM FITC-GpYLVLDKW were added and incubated for 90 min. Streptavidin-coated donor beads (0.50 µg/well), anti-DIG AlphaLISA (0.25 µg/well), and anti-FITC AlphaScreen acceptor beads (0.25 µg/well) were added and incubated for 90 min before the signals were measured with EnVison Xcite. AlphaLISA and AlphaScreen signals for measuring STAT3- and STAT5b-SH2 binding, respectively, can be separately measured by using a dysprosium 572 nm and a europium 615 nm narrow bandwidth filter. In inhibitory assays, these signals for the bound state and the free state were represented as 0% and 100% inhibition, respectively. The bound state was measured by incubating the labeled peptide and the protein without test compounds. The free state was measured by incubating the same mixture with an additional 10 µM non-labeled peptide contained phosphorylated tyrosine, which competitively binds to its corresponding protein. The IC50 value was calculated by Graph pad prism 4.0. The mean and the standard error (SEM) of IC50 values were determined from three independent experiments. The Z’ value was calculated using the equation Z’ = 1–(3×SD_bound +3×SD_free)/(Signal_bound – Signal_free). STAT1 and Grb2 binding assays were performed as described in previous report. In the assays for selectivity of Compound 1, 100 pM biotinylated DIG or 100 pM biotinylated FITC was incubated with 10 µM or 30 µM Compound 1 for 30 min. Streptavidin-coated donor beads (0.25 µg/well) and anti-DIG AlphaLISA acceptor beads (0.25 µg/well) or anti-FITC AlphaScreen acceptor beads (0.25 µg/well) were added and incubated for 90 min before the signals were measured with EnVison Xcite.

STAT5b(136–703) [2] = target: T2, STAT5b(136–703) (Homo sapiens, UniProt P51692); test: Multiplexed Alpha assay, STAT5b-SH2 binding (AlphaScreen)
T2 construct: 136 to 703 of human STAT5b; 6×His-tag (N); made in house; host or cells: E. coli BL-21 Star (DE3) pLysS co-transformed with pBirAcm
T2 sequence (P51692 136-703): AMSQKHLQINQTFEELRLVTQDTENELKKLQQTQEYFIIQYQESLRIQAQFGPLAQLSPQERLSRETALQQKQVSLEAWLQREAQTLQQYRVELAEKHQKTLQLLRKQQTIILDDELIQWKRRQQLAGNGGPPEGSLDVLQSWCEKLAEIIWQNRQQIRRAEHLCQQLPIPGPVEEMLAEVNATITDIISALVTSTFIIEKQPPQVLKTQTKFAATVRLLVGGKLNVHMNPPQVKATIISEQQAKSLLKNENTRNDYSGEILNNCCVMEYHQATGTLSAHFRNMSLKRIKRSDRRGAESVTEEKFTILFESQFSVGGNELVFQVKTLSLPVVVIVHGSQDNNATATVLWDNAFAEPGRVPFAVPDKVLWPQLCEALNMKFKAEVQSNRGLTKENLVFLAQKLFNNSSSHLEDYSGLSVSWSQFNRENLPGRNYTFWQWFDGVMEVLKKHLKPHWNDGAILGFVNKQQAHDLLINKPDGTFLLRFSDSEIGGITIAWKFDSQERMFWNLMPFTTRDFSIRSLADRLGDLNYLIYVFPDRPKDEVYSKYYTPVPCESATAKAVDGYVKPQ
Experimental: as §1

[3] = tested on: STAT3 nuclear translocation in HeLa cells; test: STAT3 nuclear translocation assay in oncostatin M-stimulated HeLa cells; assay type: cell-based
Experimental: The Cellomics STAT3 Activation Kit (Thermo Scientific) was used for the nuclear translocation assay. HeLa cells were incubated in a 96-well microplate for 24 h. Cells were pretreated with the test compounds for 1 hour, and 30 ng/mL (w/v) of oncostatin M was applied and the mixture was incubated for 10 min. The subsequent procedures were performed according to the manufacturer’s instructions. The cells were scanned with an ArrayScan VTI reader (Thermo Scientific), and analyzed with the Cytoplasm to Nucleus Translocation Application. The mean fluorescent values in the nuclei were calculated. The signals for vehicle treatment and no treatment (without oncostatin M) were represented as 100% and 0%, respectively, and the relative signal intensity was also calculated.

JAK2 = tested on: JAK2; design: method as in PMID 11934592; details: in vitro assay; cited from earlier work
TYK2 = tested on: TYK2; design: method as in PMID 11934592; details: in vitro assay; cited from earlier work
JAK3 = tested on: JAK3; design: method as in PMID 11934592; details: in vitro assay; cited from earlier work
STAT5b(136–703) [4] = target: T2, STAT5b(136–703); test: Single STAT5b-SH2 binding assay (AlphaScreen); details: single assay, non-labeled peptides (Figure 4B)
Experimental: as §1

STAT3(136–705) [5] = target: T1, STAT3(136–705); test: Single STAT3-SH2 binding assay (AlphaLISA); details: single assay, non-labeled peptides (Figure 4A)
Experimental: as §1

STAT3(136–705) [6] = target: T1, STAT3(136–705); test: AlphaScreen competition of FITC-C6-GpYLPQTV binding to STAT3(136–705); details: AlphaScreen system, competitor (Figure S2)
Experimental: To acquire the signal window, the length of the spacer between DIG and the peptide sequence in the DIG-labeled GpYLPQTV peptide was investigated by using the single STAT3-SH2 binding assay. A six carbon (C6) and a two carbon (C2) peptide spacer were used (Figure 3A). […] The DIG-C6-GpYLPQTV peptide was chosen as the STAT3 ligand. When 100 nM STAT3(136–705) was used as the biotinylated protein, 2.0 nM DIG-C6-GpYLPQTV produced the maximum signal for the STAT3-SH2 binding (Figure 3B, Figure S1). For the STAT5b-SH2 binding, FITC-C6-GpYLVLDKW was used as the STAT5b ligand. The signals increased in a peptide dose-dependent manner (Figure S1). When 20 nM STAT5b(136–703) was used, 2.5 nM FITC-C6-GpYLVLDKW produced the maximum signal for STAT5b-SH2 binding. […] Therefore, although DIG-C2-GpYLPQTV could bind to STAT3, it was not suitable for the Alpha system. The anti-DIG antibody may access the DIG-C6-GpYLPQTV peptide-STAT3 protein complex in preference to the DIG-C2-GpYLPQTV peptide complex because of the length of the spacer.
Supplementary file pone.0071646.s002.tif: Figure S2 Inhibition of STAT3-SH2 binding by DIG-C2-GpYLPQTV. DIG-C2-GpYLPQTV was used as a competitor in the binding assay for STAT3(136–705) protein and FITC-C6-GpYLPQTV peptide in the single assay. Each point is the mean from three replicates, and the error bars represent the standard deviation from the mean. […]

STAT5b(136–703) [7] = target: T3, STAT5b(136–703) (human, UniProt P51692 136-703, biotin on the Avi-tag); test: AlphaScreen or HTRF; AlphaScreen, single STAT5b-SH2 assay, competition: 20 nM biotinylated STAT5b(136-703) incubated with non-labelled peptide, then 1.0 nM FITC-GpYLVLDKW for 90 min; streptavidin donor and anti-FITC acceptor beads; 10 mM HEPES-NaOH pH 7.4, 50 mM NaCl, 1 mM EDTA, 0.1% NP-40, BSA, 25°C; details: both partners purified
T3 construct: also called biotinylated STAT5b protein; truncated form of STAT5b; source: E. coli BL-21 Star (DE3) pLysS with pBirAcm (biotinylated in the cells), purified (HisTrap HP, dialysis); not shown: Avi-tag, N-terminal, kept
T3 sequence (looked up): T2 sequence (P51692 136-703)

[8] = multiplexed binding assay, mean and SEM, three independent experiments, read-out: IC50 STAT3-SH2 binding (STAT3)
[9] = multiplexed binding assay, mean and SEM, three independent experiments, read-out: IC50 STAT5b-SH2 binding (STAT5b)
[10] = multiplexed assay, read-out: IC50 for STAT3-SH2 binding
[11] = multiplexed assay, read-out: IC50 for STAT5b-SH2 binding

T1 sequence (P40763 136-705): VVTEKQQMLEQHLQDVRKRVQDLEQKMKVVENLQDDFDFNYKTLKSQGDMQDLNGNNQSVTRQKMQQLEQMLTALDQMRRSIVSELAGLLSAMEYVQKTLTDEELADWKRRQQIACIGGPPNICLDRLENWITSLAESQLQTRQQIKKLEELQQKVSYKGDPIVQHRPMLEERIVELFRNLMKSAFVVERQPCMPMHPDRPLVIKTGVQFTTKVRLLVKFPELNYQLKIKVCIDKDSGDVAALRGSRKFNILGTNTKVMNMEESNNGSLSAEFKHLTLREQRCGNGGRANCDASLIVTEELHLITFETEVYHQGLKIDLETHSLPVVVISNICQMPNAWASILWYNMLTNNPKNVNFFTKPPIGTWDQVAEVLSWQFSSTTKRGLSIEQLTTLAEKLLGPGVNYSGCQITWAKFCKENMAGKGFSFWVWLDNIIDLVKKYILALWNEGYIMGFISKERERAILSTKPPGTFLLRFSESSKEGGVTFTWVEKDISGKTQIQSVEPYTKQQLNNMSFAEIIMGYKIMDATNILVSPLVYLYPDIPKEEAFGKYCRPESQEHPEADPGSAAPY

CCOc1ccccc1NC1=C(Cl)C(=O)c2ccccc2C1=O [Compound 2]
Increase in inhibitory activity against STAT3 in comparison with Compound 1 (STAT3(136–705) [1]; multiplexed assay): approximately 3 fold
IC50 (STAT3(136–705) [1]; [8]): 1.5 ± 0.052 µM
Increase in inhibitory activity against STAT5b in comparison with Compound 1 (STAT5b(136–703) [2]; multiplexed assay): ~8 fold
IC50 (STAT5b(136–703) [2]; [9]): 1.4 ± 0.019 µM

CC(=O)NC1=C(Cl)C(=O)c2ccccc2C1=O [Compound 4]
IC50 (STAT3(136–705) [1]; [8]): 23 ± 0.68 µM
IC50 (STAT5b(136–703) [2]; [9]): > 30 µM

O=C1C(Cl)=C(Cl)C(=O)c2ccccc21 [Compound 5]
IC50 (STAT3(136–705) [1]; [8]): 12 ± 0.59 µM
IC50 (STAT5b(136–703) [2]; [9]): 20 ± 0.33 µM

O=C1C(Cl)=C(N2CCOCC2)C(=O)c2ccc(S(=O)(=O)N3CCOCC3)cc21 [Compound 6]
IC50 (STAT3(136–705) [1]; [8]): 3.8 ± 0.064 µM
IC50 (STAT5b(136–703) [2]; [9]): 13 ± 0.38 µM

CN1CCN(C2=C(Cl)C(=O)c3ccccc3C2=O)CC1 [Compound 7]
Effect on STAT3 nuclear translocation ([3]; HeLa cells, pretreatment before oncostatin M (Figure 6, Figure S9)): did not inhibit
IC50 (STAT3(136–705) [1]; [8]): > 30 µM
IC50 (STAT5b(136–703) [2]; [9]): > 30 µM

CC(C)(C)c1nc2c3cc[nH]c(=O)c3c3cc(F)ccc3c2[nH]1 [JAK inhibitor 1]
Fluorescent intensity of STAT3 in the nuclei, of the vehicle treatment ([3]; 1 µM, positive control, HeLa): 61%

O=C(NN=Cc1coc2ccccc2c1=O)c1cccnc1 [STAT5 inhibitor, N′-((4-Oxo-4H-chromen-3-yl)methylene)nicotinohydrazide, reference compound]
IC50 (STAT3(136–705) [1]; [10]): 161 µM
IC50 (STAT5b(136–703) [2]; [11]): 2.8 µM

O=[N+]([O-])c1ccc2c(c1)S(=O)(=O)C=C2 [Stattic, reference compound]
IC50 (STAT3(136–705) [1]; [10]): 50 µM
IC50 (STAT5b(136–703) [2]; [11]): 175 µM

Ac-GYLPQTV-NH2
Inhibitory effect on STAT5b-SH2 binding (STAT5b(136–703) [4]): had no effect
Inhibitory effect on STAT3-SH2 binding (STAT3(136–705) [5]): had no effect

Ac-GYLVLDKW-NH2
Inhibitory effect on STAT5b-SH2 binding (STAT5b(136–703) [4]): had no effect
Inhibitory effect on STAT3-SH2 binding (STAT3(136–705) [5]): had no effect

Ac-GpYLPQTV-NH2 (Ac-G[pY]LPQTV-NH2) [non-labeled phosphotyrosine peptide for STAT3]
Inhibitory effect on STAT5b-SH2 binding (STAT5b(136–703) [4]): had no effect
Inhibitory effect on STAT3-SH2 binding (STAT3(136–705) [5]): inhibited

Ac-GpYLVLDKW-NH2
Inhibitory effect on STAT5b-SH2 binding (STAT5b(136–703) [4]): inhibited
Inhibitory effect on STAT3-SH2 binding (STAT3(136–705) [5]): had no effect

DIG-C2-GpYLPQTV ({DIG-C2}-G[pY]LPQTV) [digoxygenin-labeled GpYLPQTV peptide with two carbon spacer]
Inhibition of binding between FITC-C6-GpYLPQTV and STAT3(136–705) (STAT3(136–705) [6]): inhibited

B1: Ac-GpYLVLDKW-NH2 (peptide)
peptide: Ac-G[pY]LVLDKW-NH2
SMILES: CC(=O)NCC(=O)N[C@@H](Cc1ccc(OP(=O)(O)O)cc1)C(=O)N[C@@H](CC(C)C)C(=O)N[C@H](C(=O)N[C@@H](CC(C)C)C(=O)N[C@@H](CC(=O)O)C(=O)N[C@@H](CCCCN)C(=O)N[C@@H](Cc1c[nH]c2ccccc12)C(N)=O)C(C)C
notes: the leading G is not the receptor's; also called non-labeled peptide for STAT5b
binding result (STAT5b(136–703) [7]): binds

B2: FITC-C6-GpYLVLDKW (peptide)
peptide: {FITC′-C6}-G[pY]LVLDKW
notes: the leading G is not the receptor's residue at that place; also called FITC-GpYLVLDKW; FITC-labeled GpYLVLDKW peptide; source: synthetic peptide (synthesized by Nippi Biomatrix Laboratory)
binding result (STAT5b(136–703) [7]): binds
